Measured values as given in patent publication US20260144796A1, “Compounds and Methods for Improving Health” (Acurx Pharmaceuticals, Inc., priority 2022, published 2026).

Test system: gut microbiome
Experiment: Germ-free humanized mouse study, 16S rRNA gut microbiome analysis
Format: in vivo
Settings: humanized germ-free mice; for proportional change of Bacteroidetes (in words): phylum level
From the text: Germ-free (GF) mice (six per group) were randomly assigned to IBZ, VAN, FDX, MTZ, or control groups.
An oral gavage of healthy human-derived fecal slurry was given to GF mice. The humanized mice were housed in a sterile biological safety cabinet (BSC) for one week to allow the donor gut microbiome to establish. Humanized mice were then moved to sterile, micro-isolator cages and pellet chow diet was exchanged for a powder chow diet. The humanized mice were then allowed one week to acclimate to the powder chow diet. In addition, a stool sample was obtained prior to the change in diet (baseline 1). At day 14, once the mice acclimated to the powder chow diet, a second baseline stool sample was obtained (baseline 2) and antibiotic treatment was started. The appropriate antibiotics were added to the powder chow diet for 10 days. At day 16, two days after beginning antibiotic treatment, another stool sample was collected (ABX-1). During the 10-day antibiotic treatment, powder chow dishes were refilled each day with fresh chow containing the randomly assigned antibiotic. Stool samples were again collected at day 24 (ABX-2).
To assess antibiotic microbiome effect, 16S rRNA metagenomics was used on stool samples that were collected at day 0 (baseline 1 and baseline 2) and after 2 and […] of treatment with antibiotics. Bulk DNA was extracted from stool samples using the DNeasy® PowerSoil® Kit. The V4 region of the bacterial 16S rRNA gene was sequenced using the Illumina MiSeq and CLC Genomics Workbench. Raw sequencing reads were processed and curated using the mothur (v.1.48.0) software package and the mothur MiSeq SOP was followed as outlined in Schloss, P. D., et al., Introducing mothur: open-source, platform-independent, community supported software for describing and comparing microbial communities. Appl Environ Microbiol, 2009. 75(23): p. 7537-41 (see also, Kozich, J. J., et al., Development of a dual-index sequencing strategy and curation pipeline for analyzing amplicon sequence data on the MiSeq Illumina sequencing platform. Appl Environ Microbiol, 2013. 79(17): p. 5112-20.). All data visualization and statistical analysis were performed using R studio (R Core Team (2023). R: A Language and Environment for Statistical Computing, Vienna, Austria.).

[1] = antibiotic in powder chow 10 days
[2] = antibiotic in powder chow 10 days, compared to Baseline 2 (D14)

O=c1[nH]c(NCc2ccc(Cl)c(Cl)c2)nc2ncn(CCN3CCOCC3)c12 [Ibezapolstat, 2-((3,4-dichlorobenzyl)amino)-7-(2-morpholinoethyl)-1,7-dihydro-6H-purin-6-one]
proportional change of Bacteroidetes (in words): proportional increases | proportional change of Bacteroidetes (in words) (listed as IBZ): significant proportional increase | Average Change in Metric ± SD, Bray-Curtis Dissim. to Baseline 1 [1]: 0.81 ± 0.02 | Average Change in Metric ± SD, Bray-Curtis Dissim. to Baseline 2 [1]: 0.68 ± 0.03 | Avg. Change in Relative Abundance ± SD, Actinobacteria [2]: 0.02% ± 0.08% | Avg. Change in Relative Abundance ± SD, Bacteroidetes [2]: 34% ± 2.96% | Avg. Change in Relative Abundance ± SD, Proteobacteria [2]: 9.7% ± 3.12%
